Measured values taken from patent US20200316050A1, “A TOPICAL COMPOSITION BASED ON NIACINAMIDE DERIVATIVE” (Conopco, Inc., d/b/a UNILEVER, priority 2017, published 2020).

Test system: Human neonatal primary skin keratinocyte (NHEK) cells
Test: psoriasin (AMP marker) secretion by human keratinocytes, ELISA of culture supernatant
Type: cell-based
Conditions: 72 hours incubation, KGM with 2 mM calcium chloride
Description: Step 1: Human neonatal primary skin keratinocyte (NHEK) cells was obtained from Lonza ®. The experiment was done with the above-mentioned cells with passage between 3 and 4. Then, the cells were seeded (35,000 cells/well) in 24 well plate with keratinocyte growth media (KGM) obtained from Invitrogen®. The plate was then incubated at 37±2° C. in a CO2 incubator for 48 hours.
Step 2: After 48 hours of incubation, cell differentiation was induced by replacing media with fresh KGM supplemented with 2 mM calcium chloride solution. This was then followed by incubation at 37±2° C. in a CO2 incubator for 48 hours.
Step 3: After that, the cells were treated with different concentration (as outlined table 1 below) of N-cyclopentyl nicotinamide, with keratinocyte growth media supplemented with 2mM calcium chloride solution:
Step 4: After the above treatment, cells were again incubated at 37±2° C. in a CO2 incubator for 72 hours.
Step 5: After 72 hours of incubation, cell culture supernatant from each well was collected in a sterile tube. The samples were then stored at -80° C. until used for testing psoriasin secretion by standard ELISA technique using psoriasin ELISA kit obtained from Circulx® (No: CY-8073). In the current experiment, psoriasin was used as a marker for AMP.
Step 6: The ELISA method was performed by using 100 μL of cell culture supernatant from each sample.
The data is expressed in terms of fold change over control (no treatment:
Example A). The fold change in psoriasin levels in case of control (example A) is taken to be equal to 1 fold. Any fold change in psoriasin obtained due to treatments outlined in all the other examples was over and above the 1 fold change obtained from the control.

Row | Structure (SMILES) | Fold Change in psoriasin levels over control (no treatment, Example A = 1) (200 μg/mL) | Fold Change in psoriasin levels over control (no treatment, Example A = 1) (500 μg/mL) | Fold Change in psoriasin levels over control (no treatment, Example A = 1) (400 μg/mL)
1 | NC(=O)c1cccnc1 [B, Niacinamide] | 0.9 fold | 1.4 fold | 
2 | O=C(NC1CCCC1)c1cccnc1 [Example 1, N-cyclopentyl nicotinamide] | 2.06 fold |  | 2.84 fold
